Results on five molecules are retold here after patent publication US9624549B2, “Stable gene targets in breast cancer and use thereof for optimizing therapy” (Cytognomix Inc., priority 2012, dated 2017).

Experiment [1] relates to HS578T. As to the kind of experiment: GI50 of breast cancer cell lines from NCI60 panel. The class given is cell-based. As to conditions: Homo sapiens, Hs-578T, mean of replicate GI50s, read-out: mean concentration (GI50) (converted). The text has this:
Certain anti-breast cancer therapies have been evaluated in the NCl-60 panel of cancer cell lines (Staunton J E, Slonim D K, Coller H A, Tamayo P, Angelo M J, Park J, Scherf U, Lee J K, Reinhold W O, Weinstein J N and others. 2001. Chemosensitivity prediction by transcriptional profiling. Proc Natl Acad Sci USA 98:10787-92.) including four cell lines we studied (MCF7, MDA-MB-231, HS578T, and T-47D). We have confirmed stable copy numbers for a representative group of target genomic intervals in 5 breast cancer lines (MCF7, MDAMB231, HS578T, T47D and SKBR-3). Despite the lack of stratification in pathology in the tumors studied, genomic architectures and functions were preserved in these regions. Paclitaxel and its derivatives, estrone, estradiol, and topotecan are common therapies that act on multiple products encoded by dually stable genes which may, in part, explain why they are effective for inhibiting growth of these cell lines and for treating breast cancer.

The test system of a further experiment is BT549. As to conditions: BT549 cell line; replicate assays; cited from earlier work.
For experiment [2], the system named is HS578T. As to conditions: HS578T cell line; replicate assays; cited from earlier work.
In the next experiment the test system is MCF7. The following applies: MCF7 cell line; replicate assays; cited from earlier work.
The next experiment concerns MDAMB231. As to conditions: MDA231 (MDAMB231) cell line; replicate assays; cited from earlier work.
The next experiment concerns T47D. The following applies: T47D cell line; replicate assays; cited from earlier work.
The test system of experiment [3] is triple-negative breast cancer cell lines. The following applies: triple-negative breast cancer cell lines (Liu et al. 2009); cited from earlier work.

Where “and” joins values, the source holds several entries; their conditions need not be identical. Identical values can stand only once. Like-named read-outs stand apart in the source and are kept apart here.

For `CC(=O)O[C@H]1C(=O)[C@@]2(C)[C@H]([C@H](OC(=O)c3ccccc3)[C@]3(O)C[C@H](OC(=O)[C@H](O)[C@@H](NC(=O)c4ccccc4)c4ccccc4)C(C)=C1C3(C)C)[C@]1(OC(C)=O)CO[C@@H]1C[C@@H]2O` [Pa, Paclitaxel], the GI50 was 0.00316 µM in the experiment with HS578T [1]; 9.30 −log10M and 7.60 −log10M and 8.45 −log10M in the experiment on BT549; 8.81 −log10M and 8.22 −log10M and 8.52 −log10M with HS578T [2]; 9.06 −log10M and 8.01 −log10M and 8.53 −log10M with MCF7; 8.56 −log10M and 7.27 −log10M and 7.91 −log10M with MDAMB231; 6.56 −log10M and 7.27 −log10M and 6.91 −log10M in the experiment on T47D.

With `Nc1ccn([C@@H]2O[C@H](CO)[C@@H](O)C2(F)F)c(=O)n1` [Gm, gemcitabane], the GI50 in the experiment on BT549 was 7.80 −log10M and 8.00 −log10M; in the experiment with HS578T [2], 5.65 −log10M and 4.00 −log10M; in the experiment with MCF7 it was 7.99 −log10M and 8.00 −log10M; with MDAMB231, 5.86 −log10M and 6.28 −log10M and 6.03 −log10M; in the experiment with T47D, 6.26 −log10M and 8.00 −log10M and 5.86 −log10M.

For the molecule `CC[C@@]1(O)C(=O)OCc2c1cc1n(c2=O)Cc2cc3c(CN(C)C)c(O)ccc3nc2-1` [To, topotecan], the GI50 in the experiment on HS578T [1] was 28.2 µM; with BT549, 7.36 −log10M and 7.05 −log10M and 7.32 −log10M; in the experiment with HS578T [2], 5.96 −log10M and 5.14 −log10M and 5.73 −log10M; in the experiment on MCF7, 8.09 −log10M and 7.79 −log10M and 7.83 −log10M; with MDAMB231 it was 6.41 −log10M and 5.67 −log10M and 5.65 −log10M; with T47D it was 8.24 −log10M and 7.82 −log10M and 7.73 −log10M.

Consider `S=c1nc[nH]c2nc[nH]c12` [Me, mercaptopurine], for which the GI50 with BT549 was 4.52 −log10M and 3.74 −log10M and 4.00 −log10M; with HS578T [2], 4.85 −log10M and 4.84 −log10M; in the experiment on MCF7, 5.78 −log10M and 5.74 −log10M and 5.82 −log10M; with MDAMB231, 4.61 −log10M and 5.14 −log10M; in the experiment with T47D, 5.45 −log10M and 5.62 −log10M.

In the case of `CN(C)C(=N)N=C(N)N` [Metformin], the anti-cancer activity entry in experiment [3] is “has anti-cancer activity”.
